Source: patent publication US9322066B2, “Predictors for cancer treatment” (priority 2011, dated 2016)

Test system: relapsed or refractory, rituximab-naive or -sensitive follicular B-cell NHL
Assay: Treatment free interval, Vc-R vs rituximab study, by biomarker
Format: in vivo, human
Design: Treatment Free Interval, Median: unit not given here
Details: for Treatment Free Interval, Evt/N / Treatment Free Interval, Median: IRC Review
Description: Non-Hodgkin lymphoma (NHL) encompasses several unique malignant lymphoid disease entities that vary in clinical behavior, morphologic appearance, immunologic, and molecular phenotype. […] A randomized, open-label, active-controlled, multicenter, multinational, prospective study to compare the efficacy and safety of the combination of bortezomib and rituximab (Vc-R) to single-agent rituximab in subjects who have relapsed or refractory, rituximab-naive or -sensitive follicular B-cell NHL was performed.
Subjects were centrally randomized to Treatment Groups A (Vc-R) or B (rituximab) in a 1:1 ratio taking into account the following stratification factors: • Follicular Lymphoma International Prognostic Index (FLIPI) score (low [0 or 1 factor], intermediate [2 factors], high [≧3 factors]); • Prior rituximab therapy (yes, no); • Time since last dose of anti-lymphoma therapy (≦1 year, >1 year); • Region (United States/Canada, European Union, Rest of World).
The following clinical endpoints were included in the analysis within each treatment group and an overall comparison was made with the biomarker-related endpoints: Progression-free survival, defined as the interval between the date of randomization and the date of progressive disease (PD) or death, whichever is first reported in the ITT population; overall survival; overall response rate (complete response [CR]+CR unconfirmed [CRu]+partial response [PR]); overall CR rate (CR+CRu); duration of response; time to next anti-lymphoma therapy; and treatment free interval.

[1] = 20S % NUCLEAR STAINING 0-20, Female
[2] = 20S % NUCLEAR STAINING 60-70, Male
[3] = 20S % NUCLEAR STAINING 60-70, Prior Rituximab Therapy
[4] = 20S INTENSITY CYTOPLASMIC SIGNAL: ≧3+, European Union
[5] = CD68 OVERALL POSITIVE: 0-25, 2 Prior Lines of Therapy
[6] = CD68 OVERALL POSITIVE: 0-25, >1 year since last anti-lymphoma treatment
[7] = CD68 OVERALL POSITIVE: 0-25, Ann Arbor Stage III
[8] = CD68 OVERALL POSITIVE: 0-25, Ann Arbor Stage IV
[9] = CD68 OVERALL POSITIVE: 0-25, European Union
[10] = CD68 OVERALL POSITIVE: 0-25, Female
[11] = CD68 OVERALL POSITIVE: 0-25, Intermediate FLIPI Score
[12] = CD68 OVERALL POSITIVE: 0-25, Low FLIPI Score
[13] = CD68 OVERALL POSITIVE: 0-25, No High Tumor Burden
[14] = CD68 OVERALL POSITIVE: 0-25, No Prior Rituximab Therapy
[15] = CD68 OVERALL POSITIVE: 0-25, No Subgroup
[16] = CD68 OVERALL POSITIVE: 0-25, Prior Rituximab Therapy
[17] = CD68 OVERALL POSITIVE: 0-25, White
[18] = CD68 OVERALL POSITIVE: 0-25, ≦65 years old
[19] = CD68 OVERALL POSITIVE: >75, Male
[20] = CD68 POSITIVE FOLLICULAR: 0-25, >1 year since last anti-lymphoma treatment
[21] = CD68 POSITIVE FOLLICULAR: 0-25, Ann Arbor Stage III
[22] = CD68 POSITIVE FOLLICULAR: 0-25, Asian
[23] = CD68 POSITIVE FOLLICULAR: 0-25, Female
[24] = CD68 POSITIVE FOLLICULAR: 0-25, No High Tumor Burden
[25] = CD68 POSITIVE FOLLICULAR: 0-25, No Prior Rituximab Therapy
[26] = CD68 POSITIVE FOLLICULAR: 0-25, No Subgroup
[27] = CD68 POSITIVE FOLLICULAR: 0-25, White
[28] = CD68 POSITIVE FOLLICULAR: 0-25, ≦65 years old
[29] = CD68 POSITIVE PERIFOLLICULAR: 0-25, 2 Prior Lines of Therapy
[30] = CD68 POSITIVE PERIFOLLICULAR: 0-25, >1 year since last anti-lymphoma treatment
[31] = CD68 POSITIVE PERIFOLLICULAR: 0-25, Ann Arbor Stage IV
[32] = CD68 POSITIVE PERIFOLLICULAR: 0-25, Female
[33] = CD68 POSITIVE PERIFOLLICULAR: 0-25, Intermediate FLIPI Score
[34] = CD68 POSITIVE PERIFOLLICULAR: 0-25, No High Tumor Burden
[35] = CD68 POSITIVE PERIFOLLICULAR: 0-25, No Prior Rituximab Therapy
[36] = CD68 POSITIVE PERIFOLLICULAR: 0-25, No Subgroup
[37] = CD68 POSITIVE PERIFOLLICULAR: 0-25, White
[38] = CD68 POSITIVE PERIFOLLICULAR: 0-25, ≦65 years old
[39] = CD68 POSITIVE PERIFOLLICULAR: 26-50, Other
[40] = CD68 POSITIVE PERIFOLLICULAR: >75, 1 Prior Line of Therapy
[41] = CD68 POSITIVE PERIFOLLICULAR: >75, European Union
[42] = CD68 POSITIVE PERIFOLLICULAR: >75, ≦65 years old
[43] = P27 % NUCLEI POSITIVE: 0-20, 1 Prior Line of Therapy
[44] = P27 % NUCLEI POSITIVE: 0-20, Ann Arbor Stage III
[45] = P27 % NUCLEI POSITIVE: 0-20, ≦65 years old
[46] = P27 % NUCLEI POSITIVE: 30-50, High Tumor Burden
[47] = P27 SIGNAL INTENSITY: ≦1+, High Tumor Burden
[48] = P27 SIGNAL INTENSITY: ≧2+, 5 Prior Lines of Therapy

rituximab
Treatment Free Interval, Evt/N [1]: 35/61
Treatment Free Interval, Median [1]: 427
Treatment Free Interval, Evt/N [2]: 14/16
Treatment Free Interval, Median [2]: 110
Treatment Free Interval, Evt/N [3]: 17/21
Treatment Free Interval, Median [3]: 190
Treatment Free Interval, Evt/N [4]: 34/52
Treatment Free Interval, Median [4]: 393
duration of treatment free interval (Biomarker positive (PSMB1 P11A heterozygote and CD68 Low)): 10.1 mo
Treatment Free Interval, Evt/N [5]: 6/8
Treatment Free Interval, Median [5]: 80
Treatment Free Interval, Evt/N [6]: 17/26
Treatment Free Interval, Median [6]: 269
Treatment Free Interval, Evt/N [7]: 12/16
Treatment Free Interval, Median [7]: 135
Treatment Free Interval, Evt/N [8]: 15/22
Treatment Free Interval, Median [8]: 293
Treatment Free Interval, Evt/N [9]: 14/22
Treatment Free Interval, Median [9]: 234
Treatment Free Interval, Evt/N [10]: 16/26
Treatment Free Interval, Median [10]: 293
Treatment Free Interval, Evt/N [11]: 7/11
Treatment Free Interval, Median [11]: 343
Treatment Free Interval, Evt/N [12]: 8/10
Treatment Free Interval, Median [12]: 281
Treatment Free Interval, Evt/N [13]: 8/14
Treatment Free Interval, Median [13]: 411
Treatment Free Interval, Evt/N [14]: 12/19
Treatment Free Interval, Median [14]: 393
Treatment Free Interval, Evt/N [15]: 30/44
Treatment Free Interval, Median [15]: 269
Treatment Free Interval, Evt/N [16]: 18/25
Treatment Free Interval, Median [16]: 115
Treatment Free Interval, Evt/N [17]: 24/35
Treatment Free Interval, Median [17]: 269
Treatment Free Interval, Evt/N [18]: 24/34
Treatment Free Interval, Median [18]: 234
Treatment Free Interval, Evt/N (CD68 OVERALL POSITIVE: 51-75, No High Tumor Burden): 10/25
Treatment Free Interval, Evt/N [19]: 8/9
Treatment Free Interval, Median [19]: 272
Treatment Free Interval, Evt/N [20]: 22/34
Treatment Free Interval, Median [20]: 409
Treatment Free Interval, Evt/N [21]: 19/24
Treatment Free Interval, Median [21]: 190
Treatment Free Interval, Evt/N [22]: 5/6
Treatment Free Interval, Median [22]: 148
Treatment Free Interval, Evt/N [23]: 23/37
Treatment Free Interval, Median [23]: 307
Treatment Free Interval, Evt/N [24]: 14/22
Treatment Free Interval, Median [24]: 432
Treatment Free Interval, Evt/N [25]: 23/36
Treatment Free Interval, Median [25]: 344
Treatment Free Interval, Evt/N [26]: 40/60
Treatment Free Interval, Median [26]: 307
Treatment Free Interval, Evt/N [27]: 32/48
Treatment Free Interval, Median [27]: 307
Treatment Free Interval, Evt/N [28]: 33/46
Treatment Free Interval, Median [28]: 190
Treatment Free Interval, Evt/N [29]: 6/8
Treatment Free Interval, Median [29]: 64
Treatment Free Interval, Evt/N [30]: 15/24
Treatment Free Interval, Median [30]: 393
Treatment Free Interval, Evt/N [31]: 11/15
Treatment Free Interval, Median [31]: 234
Treatment Free Interval, Evt/N [32]: 19/28
Treatment Free Interval, Median [32]: 234
Treatment Free Interval, Evt/N [33]: 7/13
Treatment Free Interval, Median [33]: 361
Treatment Free Interval, Evt/N [34]: 8/13
Treatment Free Interval, Median [34]: 361
Treatment Free Interval, Evt/N [35]: 12/18
Treatment Free Interval, Median [35]: 393
Treatment Free Interval, Evt/N [36]: 26/39
Treatment Free Interval, Median [36]: 234
Treatment Free Interval, Evt/N [37]: 19/27
Treatment Free Interval, Median [37]: 361
Treatment Free Interval, Evt/N [38]: 20/31
Treatment Free Interval, Median [38]: 143
Treatment Free Interval, Evt/N [39]: 4/4
Treatment Free Interval, Median [39]: 217
Treatment Free Interval, Evt/N [40]: 15/18
Treatment Free Interval, Median [40]: 297
Treatment Free Interval, Evt/N [41]: 13/17
Treatment Free Interval, Median [41]: 533
Treatment Free Interval, Evt/N [42]: 19/23
Treatment Free Interval, Median [42]: 297
Treatment Free Interval, Evt/N [43]: 19/26
Treatment Free Interval, Median [43]: 293
Treatment Free Interval, Evt/N [44]: 14/16
Treatment Free Interval, Median [44]: 275
Treatment Free Interval, Evt/N [45]: 26/34
Treatment Free Interval, Median [45]: 187
Treatment Free Interval, Evt/N [46]: 17/22
Treatment Free Interval, Median [46]: 280
Treatment Free Interval, Evt/N (P27 % NUCLEI POSITIVE: 60-70, 3 Prior Lines of Therapy): 1/6
Treatment Free Interval, Evt/N [47]: 16/18
Treatment Free Interval, Median [47]: 122
Treatment Free Interval, Evt/N [48]: 5/6
Treatment Free Interval, Median [48]: 88
Treatment Free Interval, Evt/N (P27 SIGNAL INTENSITY: ≧2+, Prior Rituximab Therapy): 60/88
